Results: US20200270588A1, “GLUCOSYL TRANSFERASE POLYPEPTIDES AND METHODS OF USE” (Syngenta Participations AG, priority 2017, published 2020)

Tested on: transgenic tobacco plants expressing zmBX8 (SEQ ID No 2)
Experiment: Glass house spray test on tobacco, percent damage
Format: in vivo
Conditions: 30 g/ha
Protocol: In the present example, Zea mays BX8 or BX9 or orthologues of BX8/9, for example SEQ ID Nos. 1-59 and various herbicide-active mutations and combinations of mutations thereof (e.g. as listed in Tables 1-9) are expressed in transgenic tobacco. DNA sequences that encode these polypeptides (optimized for tobacco or, optionally, codon optimized according to a target crop such as soybean) are prepared synthetically and obtained commercially from Genewiz (South Plainfield, USA). Each sequence is designed to include a 5′ fusion with TMV omega 5′ leader (SEQ ID NO: 109). The DNA sequences are flanked at the 5′ end with XhoI and at the 3′ end with KpnI to facilitate direct cloning into a suitable binary vector for Agrobacterium-based plant transformation. […]
Three transgenic populations of about forty tobacco plants and comprising, a glucosyl transferase gene encoding either zmBX8 (SEQ ID NO 2) or zmBX9 (SEQ ID NO 1) were thus produced. […] Plants were assessed for damage and scored at 7 and 14 days after treatment (DAT).

For `CON1C(=O)N(c2cc(C(F)(F)F)ccn2)C(O)[C@@H]1C` (stereo partly shown) [Compound VI], which “tolerance” value is on record?
Its value is “little or no tolerance”.
